Patent US20230067064A1, “METHODS AND COMPOSITIONS FOR MODULATING SPLICING” (SkyHawk Therapeutics, Inc., priority 2019, published 2023)
Like-named read-outs stand apart in the source and are kept apart here.

Tests used:
[1] = system: MDR1-MDCK cell monolayers; test: MDCK-MDR1 permeability assay, blood-brain-barrier (BBB) penetration potential; assay type: in vitro ADME; conditions: for General MDCK-MDR1: Efflux: efflux ratio
Experimental: (§1) Each determination is performed in duplicate. […] Analytical conditions are outlined below.
(§2) Papp=(dCr/dt)×Vr/(A×CA) (1)

mHTT protein = mHTT protein assay, 2B7-MW1 Mesoscale Discovery (MSD); assay type: cell-based, human; conditions: GM04724 lymphoblast cells, 48 hours, 2B7-MW1 MSD; average; read-out: HTT Potency - Protein & Cytotoxicity: EC50 mHTT (average)
Experimental: Compounds are tested on GM04724 (CAG 70/20) Huntington's disease patient lymphoblast cells at doses ranging from 10 μM to 0.6 nM. 4,500 cells/well are seeded in 384 well plates. One plate replica is carried out for parallel viability testing by CellTiter Glo (CTG). Compounds are incubated for 48 hours. mHTT protein levels are assessed by the 2B7-MW1 assay via Mesoscale Discovery (MSD) as previously reported (Macdonald et al., 2014). The antibody pair is comprised of previously characterized monoclonals (2B7 and MW1) interrogating two regions for HTT conformation and biological properties: the N17 domain and the polyQ domain (Baldo et al., 2012; Ko et., 2001). 2B7-MW1 is dependent on subject/animal specific levels of HTT at the time of treatment. 2B7-MW1 is dependent on polyQ expansion (e.g., the higher the expansion the higher the signal) and on mHTT size (e.g., a similar polyQ will give higher signal with smaller HTT size). The viability readout is carried out by CTG according to the manufacturer's instructions. The results are show in Table A-10.

[2] = system: cryptic exon within intron 49 of the Huntingtin (HTT) transcripts, GM04724 (CAG 70/20) Huntington's disease patient lymphoblasts; test: Quantitative splicing assay (HTT); assay type: cell-based, human; conditions: average
Experimental: GM04724 (CAG 70/20) Huntington's disease patient lymphoblasts (Coriell) are plated in 96-well v-bottom plates at 50,000 cells/well. Immediately after plating, cells are dosed with compound for 24 h at concentrations ranging from 2.5 uM to 0.15 nM (0.1% DMSO). Treated cells are lysed and cDNA synthesized using the Fast Advanced Cells-to-Ct kit (Thermofisher A35378) according to the manufacturer's instructions. 2 uL of each cDNA are used in qPCR reactions to confirm the compound-induced inclusion of a cryptic exon within intron 49 of the Huntingtin (HTT) transcripts. The qPCR reactions are prepared in 384-well plates in 10 uL volume, using TaqMan™ Fast Advanced Master Mix [ThermoFisher; 4444965] with primers and probes shown in the table below. Reactions are run in a Quant Studio 6 qPCR instrument with default settings.

SMN protein = SMN protein assay, Mesoscale Discovery (MSD); assay type: cell-based, human; conditions: SMA patient fibroblasts (GM03813), 48 hours, average, read-out: SMN2 Potency - Protein: Protein FL EC50 (average)
Experimental: Compounds are tested on spinal muscular atrophy (SMA) patient fibroblasts (GM03813, Coriell) at doses ranging from 2.5 μM to 0.6 nM. 7000 cells/well are seeded in 96-well plates. Compounds are incubated for 48 hours and the cells were lysed with 100 μL of lysis buffer. 20 μL of lysate is used for SMN protein measurement by Mesoscale Discovery (MSD) assay developed by PharmOptima (Michigan). A standard curve prepared with SMN protein ranging from 1 μg/ml to 19.5 pg/ml is used in each MSD plate to calculate the absolute SMN protein amount in each sample.

[3] = system: SMN FL and SMN Δ7 mRNA, spinal muscular atrophy (SMA) patient fibroblasts (GM03813); test: Quantitative splicing assay (SMN); assay type: cell-based, human; conditions: 24 h, average
Experimental: Spinal muscular atrophy (SMA) patient fibroblasts (GM03813, Coriell) are plated in 96-well plates at 50,000 cells/well. […] Treated cells are lysed and cDNA synthesized using the Fast Advanced Cells-to-Ct kit (Thermofisher A35378) according to the manufacturer's instructions. 2 μL of each cDNA are used in qPCR reactions. […] Reactions are run in a Quant Studio 6 qPCR instrument with default settings.

MDR1 = test: MDCK-MDR1 permeability assay, blood-brain-barrier (BBB) penetration potential; assay type: in vitro ADME; conditions: dog, MDCK-MDR1, pH 7.4
Experimental: as §1, §2

[4] = read-out: HTT Potency - Splicing: E49-50 EC50 (average)
[5] = read-out: HTT Potency - Splicing: E49b EC50 (average)
[6] = dog, MDCK-MDR1, 120 min, 5 μM, pH 7.4

| Compound | General MDCK-MDR1: % Recov A-B ([1]; A-B direction) [%] | General MDCK-MDR1: % Recov B-A ([1]; B-A direction) [%] | General MDCK-MDR1: Efflux [1] | EC50 (mHTT protein) [nM] | EC50 [2, 4] [nM] | EC50 [2, 5] [nM] | EC50 (SMN protein) [nM] | IC50 ([3]; read-out: SMN2 Potency - Splicing: Splicing D7 IC50 (average)) [nM] | EC50 ([3]; read-out: SMN2 Potency - Splicing: Splicing FL EC50 (average)) [nM] | General MDCK-MDR1: % Recov A-B [1, 6] [%] | General MDCK-MDR1: % Recov B-A [1, 6] [%] | Papp A→B at 120 min, 5 μM (MDR1) [nm/s] | Papp B→A at 120 min, 5 μM (MDR1) [nm/s] | efflux ratio at 120 min, 5 μM (MDR1) |
| --- | --- | --- | --- | --- | --- | --- | --- | --- | --- | --- | --- | --- | --- | --- |
| CC12CCC(CC(Oc3ccc(-c4ccc(-c5cn[nH]c5)cc4O)nn3)C1)N2 (single isomer, unassigned; ent2) [309-Ent2] | 91 | 86 | 50 | 0.01 to 15 | 0.01 to 15 | 0.01 to 15 |  |  |  |  |  |  |  |  |
| COc1cc(-c2ccc(-c3ccc(N(C)C4CC5CCC(C)(C4)N5)nn3)c(O)c2)cnn1 (single isomer, unassigned; ent2) [310-Ent2] | 89 | 80 | 133 | 0.01 to 15 |  |  | 16 to 50 |  |  |  |  |  |  |  |
| COc1cc(-c2ccc(-c3ccc(N(C)C4CC5CCCC(C)(C4)N5)nn3)c(O)c2)cnn1 (single isomer, unassigned; ent2) [311-Ent2] | 84 | 83 | 137 | 0.01 to 15 |  |  | 16 to 50 |  |  |  |  |  |  |  |
| COCC12CCC(CC(N(C)c3ccc(-c4cc(F)c(-n5ccnc5)cc4O)nn3)C1)N2 (single isomer, unassigned; ent2) [315-Ent2] | 104 | 107 | 117 | 0.01 to 15 | 0.01 to 15 | 0.01 to 15 |  |  |  |  |  |  |  |  |
| COCC12CCCC(CC(Oc3ccc(-c4ccc(-c5cnn(C)c5)cc4O)nn3)C1)N2 (single isomer, unassigned; ent2) [316-Ent2] | 77 | 106 | 40 | 16 to 50 | 16 to 50 | 16 to 50 | 0.01 to 15 | 16 to 50 | 51 to 100 |  |  |  |  |  |
| CN(c1ccc(-c2ccc(-c3cnn(C)c3)cc2O)nn1)C1CC2(C)CCC(N2)C1F (single isomer, unassigned; ent2) [318-Ent2] |  |  |  | 0.01 to 15 |  |  | 0.01 to 15 |  |  |  |  |  |  |  |
| CN1C2CC[C@@H]1C[C@@H](Oc1ccc(-c3ccc(-n4ccnc4)cc3O)nn1)C2 [compound 301] |  |  |  |  |  |  | 501 to 10000 |  |  | 83 | 91 | 23.4 | 482 | 21 |
| CN1[C@@H]2CCC[C@H]1C[C@H](Oc1ccc(-c3ccc(-n4ccnc4)cc3O)nn1)C2 [compound 302] |  |  |  | 501 to 10000 |  |  | 51 to 100 |  |  | 90 | 110 | 30.9 | 558 | 18 |
| CN1[C@@H]2CCC[C@H]1C[C@H](Oc1ccc(-c3ccc(-c4cn[nH]c4)cc3O)nn1)C2 [compound 305] |  |  |  | 51 to 100 |  |  | 501 to 10000 |  |  |  |  |  |  |  |
| CN1[C@@H]2CC[C@H]1C[C@H](Oc1ccc(-c3ccc(-c4cn[nH]c4)cc3O)nn1)C2 [compound 306] |  |  |  | 101 to 500 |  |  | 501 to 10000 |  |  | 95 | 102 | 11.9 | 554 | 47 |
